Data set [1] has as its system kinase inhibitor-induced mouse model with hand-foot skin reaction. As to the kind of experiment: kinase inhibitor-induced mouse model with hand-foot skin reaction. It counts as in vivo, ICR mice. As to conditions: for expression level of cytokine IL-1β in the skin tissues of the hind limb toes of the mice / infiltration of inflammatory cells / thickening of the epidermal layer and the stratum corneum in the skin tissues: 3% ointment topical or nicotinamide 100 mg/kg oral; for infiltration of inflammatory cells / thickening of the epidermal layer and the stratum corneum in the skin tissues / swelling of the toes caused by the modeling drugs: sorafenib and osimertinib models; for swelling of the toes caused by the modeling drugs: compound of formula (I) 3% ointment topical or nicotinamide 100 mg/kg oral, once daily 16 days. From the text: After adaptive feeding for 7 days, SPF-grade ICR mice (male, 5-6 weeks old, with a body weight of approximately 35 g) were randomly divided into groups, including a blank control group (6 mice), a sorafenib modeling group (6 mice), an osimertinib modeling group (6 mice), a sorafenib + compound of formula (I) group (6 mice), an osimertinib + compound of formula (I) group (6 mice), a sorafenib + nicotinamide group (6 mice), and an osimertinib + nicotinamide group (6 mice). The groups were respectively administered corresponding modeling drugs by oral gavage (sorafenib at 100 mg/kg and osimertinib at 10 mg/kg) once daily; and the blank control group was administered an equivalent volume of normal saline. After administration with the chemotherapeutic drugs for 2 weeks, the ointments containing the compound of formula (I) (at a compound content of 3%) used in Example 10 were respectively applied topically in the groups, or nicotinamide was orally administered (100 mg/kg) once daily continuously for 16 days.
Measurement of the degree of swelling of toes: The degree of swelling of hind limb toes of the mice was measured using a toe swelling tester (KW-7C, Nanjing Calvin Biotechnology Co., Ltd.) before administration with the modeling drugs, after administration with the modeling drugs for 2 weeks, and before sacrifice, respectively. Before measurement, ankle joints of hind feet of the mice were marked at same positions before administration, after administration for 2 weeks, and before sacrifice. During measurement, water was properly located at the same level as the marked positions, and numerical values were recorded after becoming stable.
Pathological staining of skin tissues: Skin tissue samples were selected from hind limb toes of the mice and placed in 4% paraformaldehyde for fixation at room temperature for 4 hours. Then, the tissues were taken out and rinsed with running water for several hours. The samples were subjected to dehydration treatment with 70%, 80%, and 90% ethanol solutions, followed by treatment with a mixed solution of equal amounts of absolute alcohol and xylene for 15 minutes, and then permeabilized twice with a xylene solution for 15 minutes each time until the samples became transparent. The samples were placed in a mixture of half xylene and half paraffin for soaking for 15 minutes, and then, paraffin I and paraffin II were added for wax penetration for one hour, respectively. After embedding with paraffin, the samples were sectioned, baked, dewaxed, and hydrated. Then, the hydrated sections were placed in a hematoxylin solution (ZSGB-BIO, article No. 23041001) for staining for 3 minutes, and a differentiation solution of hydrochloric acid in ethanol was added for differentiation for 15 seconds. After rinsing with water, a Scott bluing solution (Servicebio, article No. 20230801) was added for bluing for 15 seconds. After rinsing with running water, the sections were stained with an eosin solution (Solarbio, article No. 33535) for 3 minutes, rinsed with running water, dehydrated, permeabilized, sealed, and inspected under a microscope.
Immunohistochemical staining: After baking, dewaxing, and hydration, paraffin sections of skin tissues of hind limb toes of the mice were subjected to antigen retrieval using a 0.2 M citric acid buffer solution (containing 1.534 g of citric acid, 3.1 g of sodium citrate, and 100 mL of distilled water, pH 4.7). Endogenous […] was removed using 3% hydrogen peroxide (Shandong Annjet High-Tech Disinfection Technology Co., Ltd., article No. 20290902), and the sections were incubated at room temperature for 10 minutes and then fully rinsed with a PBS buffer solution (containing 8 g of NaCl, 0.2 g of KCl, 1.44 g of Na2HPO4, and 1 M HCl, pH 7.4). The sections were permeabilized with 0.5% Triton-X-100 (AmyJet Scientific, article No. A-CSH436-100 mL), respectively permeabilized with mouse anti-IL-1β and rabbit IL-8 for 10 minutes, and not permeabilized with rabbit anti-IL-6. […]

The subject of data set [2] is rat models with a hand-foot skin reaction. The data set is described as follows: rat models with a hand-foot skin reaction. The data set is classed as in vivo, SD rats. As to conditions: for Incidence rate Left paw: once daily 30 days; for Incidence rate Right paw: right paw with blank matrix ointment, 30 days. On the procedure: After adaptive feeding for one week, SD rats (with a body weight of approximately 200 g) were randomly divided into groups with balanced body weight, with 12 rats in each group. Modeling drugs (including sorafenib, erlotinib, afatinib, and osimertinib) were respectively dissolved in a solution containing 5% of DMSO, 45% of PEG400, and 50% of H2O, and the modeling drugs were diluted to required concentrations and then administered once daily by gavage at doses shown in Table 3. After administration by gavage for 1 hour, 0.05 g of ointments containing different mass proportions of test compounds were evenly applied to left paws of the rats, a blank matrix ointment was applied to right paws of the rats to serve as a self-control, and no ointment was applied to the rats in a blank control group. After drug application, four limbs were continuously immobilized for 2 hours, then wiped with clean water to remove the residual drugs, removed from immobilization, and restored to free movement. The modeling drugs, the blank matrix ointment, and the ointments containing the test compounds were all administered once daily. After continuous administration for 30 days, the rats were euthanized, and paw plantar skin tissues were collected, fixed in 10% neutral formalin, […]. The ointments for the test compounds were prepared by mixing the compounds, white beeswax, white petrolatum, and light liquid paraffin in specific ratios (weight ratios of 3 ointments were respectively 1:18:58:23, 3:18:57:22, and 10:20:40:30). The blank matrix ointment was prepared by mixing white beeswax, white petrolatum, and light liquid paraffin in a specific ratio (weight ratio of 18:60:22).
Tissue staining: After dewaxing and rehydration, the paw plantar skin tissue sections of the above rats were stained in a hematoxylin solution for several minutes, cleaned, and placed in 1% acid alcohol for soaking until the sections faded to light blue-red. After cleaning with running water for 5 minutes, the sections were stained with eosin for 2-3 minutes, cleaned to remove excess dyes, dehydrated, then permeabilized by adding xylene for several minutes, and sealed and fixed with a neutral resin. The stratum corneum was observed under an optical microscope, and the thickness of the epidermal stratum corneum was measured using Dmetrix software.
Immunohistochemical staining: After dewaxing and hydration, the paw plantar skin tissue sections of the above rats were incubated with 3% H2O2 at room temperature for 30 minutes and blocked with 10% goat serum for 30 minutes after antigen retrieval. A KRT1 antibody (Abcam, ab93652) and a Loricrin antibody (Abcam, ab183646) were added dropwise, the sections were incubated overnight at 4°C, and an HRP secondary antibody (ZSGB-BIO, PV-6001) and a DAB kit (ZSG-BIO, ZLI9017) were added for color development. The sections were re-stained with hematoxylin, cleaned, and sealed and fixed with a neutral resin, and the expression amounts of KRT1 and Loricrin were observed under an optical microscope.
An incidence rate calculation method involves a proportion of animals in each group meeting the above criteria for determining successful modeling, that is, incidence rate = (number of successfully modeled rats/total number of rats in the group)*100%. […]

[3] abbreviates: Afatinib 50 mg/kg model, 1% ointment on left paw.
Setting [4] is: Afatinib 50 mg/kg model, 3% ointment on left paw.
The mark [5] stands for this setting: Afatinib 50 mg/kg model, 10% ointment on left paw.
Where [6] appears, read: Erlotinib 70 mg/kg model, 1% ointment on left paw.
Where [7] appears, read: Erlotinib 70 mg/kg model, 3% ointment on left paw.
The mark [8] stands for this setting: Erlotinib 70 mg/kg model, 10% ointment on left paw.
Where [9] appears, read: Osimertinib 60 mg/kg model, 1% ointment on left paw.
Setting [10] is: Osimertinib 60 mg/kg model, 3% ointment on left paw.
Setting [11] is: Osimertinib 60 mg/kg model, 10% ointment on left paw.
Setting [12] is: Sorafenib 100 mg/kg model, 1% ointment on left paw.
The mark [13] stands for this setting: Sorafenib 100 mg/kg model, 3% ointment on left paw.
[14] abbreviates: Sorafenib 100 mg/kg model, 10% ointment on left paw.

The structures appear in SMILES notation.

This note sets out measurements from patent EP4782431A1 (Suzhou Merna Therapeutics Co. Ltd, priority 2023, dated 2025).

With `NC(=O)[C@H]1CCCc2c1[nH]c1ccc(Cl)cc21` [Compound of formula (I), (S)-6-chloro-2,3,4,9-tetrahydro-1H-carbazole-carboxamide], the “expression level of cytokine IL-1β in the skin tissues of the hind limb toes of the mice” value (shortened to “expression level of cytokine IL-1β”) in data set [1] (osimertinib model) and in data set [1] (sorafenib model) was “significantly decrease” each time. Further, the “infiltration of inflammatory cells” value in data set [1] is given as “no infiltration of inflammatory cells observed”. The “thickening of the epidermal layer and the stratum corneum in the skin tissues” value in data set [1] was “effectively alleviate”. For the same compound, the “swelling of the toes caused by the modeling drugs” value in data set [1] is “effectively alleviate”. For the same compound, the “Incidence rate Left paw” value in data set [2] (setting [3]) is recorded as 3/12 (25%); in data set [2] (setting [4]), 2/12 (17%); in data set [2] (setting [5]) it was 0/12 (0%); in data set [2] (setting [6]), 3/12 (25%); in data set [2] (setting [7]), 2/12 (17%); in data set [2] (setting [8]), 1/12 (8%). Further, the “Incidence rate Left paw” value was 2/12 (17%) in data set [2] (setting [9]); 2/12 (17%) in data set [2] (setting [10]); 0/12 (0%) in data set [2] (setting [11]); 2/12 (17%) in data set [2] (setting [12]); 2/12 (17%) in data set [2] (setting [13]); 0/12 (0%) in data set [2] (setting [14]). The “Incidence rate Right paw” value in data set [2] (setting [3]) is 9/12 (75%); in data set [2] (setting [4]) it was 4/12 (33%); in data set [2] (setting [5]), 3/12 (25%); in data set [2] (setting [6]), 10/12 (83%); in data set [2] (setting [7]) it was 5/12 (42%); in data set [2] (setting [8]), 4/12 (33%). In addition, the “Incidence rate Right paw” value in data set [2] (setting [9]) was 8/12 (67%); in data set [2] (setting [10]), 4/12 (33%); in data set [2] (setting [11]), 3/12 (25%); in data set [2] (setting [12]), 9/12 (75%); in data set [2] (setting [13]), 4/12 (33%); in data set [2] (setting [14]), 4/12 (33%). For the same compound, in data set [2] (ointment on paw of modeled rats), the “stratum corneum thickness of the paw plantar skin of the modeled rats” value is reported as “effectively decrease”. Further, the “incidence rate of hand-foot skin reaction at a drug application site” value in data set [2] (ointment, mass content of 1%) was “significantly decrease”. Further, the “incidence rate of hand-foot skin reaction in all paws of the rats” value in data set [2] (ointment, mass content of 3% and 10%) is reported as “significantly decrease”. Also, the “formation of blisters in the epidermis and subepidermis caused by the modeling drugs” value in data set [2] (pathological scoring (FIG. 10)) and in data set [2] (tissue staining (FIG. 9)) was “effectively alleviate” each time. Besides, the “inflammatory cell infiltration in the dermis” value in data set [2] (pathological scoring (FIG. 10)) and in data set [2] (tissue staining (FIG. 9)) was “inhibit” throughout. The skin congestion phenomenon result in data set [2] (pathological scoring (FIG. 10)) and in data set [2] (tissue staining (FIG. 9)) was “significantly alleviate” in each case.

In the case of `NC(=O)c1cccnc1` [Nicotinamide, nicotinamide], the “expression level of cytokine IL-1β” value in data set [1] (osimertinib model) was “didn't have a significant impact”. Besides, in data set [1], the “infiltration of inflammatory cells” value is listed as “infiltration of inflammatory cells still observed”; the “thickening of the epidermal layer and the stratum corneum in the skin tissues” value is “didn't significantly alleviate”; the “swelling of the toes caused by the modeling drugs” value is recorded as “not observed that oral administration of the nicotinamide at 100 mg/kg significantly alleviated the swelling”. In addition, the “expression level of cytokine IL-1β” value in data set [1] (sorafenib model) is “didn't have a significant impact”.

As for `C=CC(=O)Nc1cc(Nc2nccc(-c3cn(C)c4ccccc34)n2)c(OC)cc1N(C)CCN(C)C` [Osimertinib, osimertinib], the “cytokine IL-1β in the skin tissues of the hind limb toes of the mice” value in data set [1] (modeling drug oral 14 days, vs normal control group, p<0.05) is recorded as “significantly increased”. The “swelling of the hind limb toes of the mice” value in data set [1] (modeling drug oral, 14 days: sorafenib 100 mg/kg, osimertinib 10 mg/kg) is reported as “significant swelling of the hind limb toes of the mice was caused”. Further, the “epidermal layer and the stratum corneum in the skin tissues of the hind limb toes” value in data set [1] (modeling drug oral, 14 days: sorafenib, osimertinib, vs normal control group) was “significantly thickened”. Further, the “skin of the hind limb toes of the mice (appearance)” value in data set [1] (modeling for 14 days: sorafenib 100 mg/kg, osimertinib 10 mg/kg oral gavage once daily, vs normal control group) was “obvious erythema and rhagades”. Moreover, in data set [2] (rat, in vivo), the “KRT1 and Loricrin in tissues” value is reported as “significantly increased”; the “stratum corneum thickness of the paw plantar skin” value is reported as “significantly higher than that of normal rats”.
